These results are taken from US20070187646A1, “Surface-active amines and methods of using same to impede corrosion” (priority 2006, published 2007).

A short description of data set [1]: Quartz crystal microbalance weight loss of amine-treated iron surface in unstirred 0.5 M sodium sulfate solution. The settings on record: for percent wt. loss: amine-treated iron surface, 6.5 hours in unstirred 0.5 M Na2SO4 (pH=5.8); for time when wt. loss commenced: unstirred 0.5 M Na2SO4 (pH=5.8), 6.5 hours. The method, then:
Weightloss measurements were performed by immersing the amine-coated iron surface in 0.5 M sodium sulfate solution (pH=5.8), and comparing the results observed with those obtained in case of an unprotected iron surface. From the results achieved, the following four major conclusions follow:
Table I below correlates the pKa of an amine with the percentage weight loss observed (using the quartz crystal microbalance technique) when the amine-treated iron surface was immersed for 6.5 hours in 0.5 M Na2SO4 solution (pH=5.8). See pKa prediction of organic acids and bases, D. D. Perrin, B. Dempsey, E. P. Serjeant (1981), Chapman and Hall. Physical methods in Heterocyclic Chemistry Vol. 1, A. A. Katritzky (1963), Academic Press.

Data set [2] can be described thus: QCM weight loss of amine-treated iron deposit in "open" pH 2.6 sulfate solution.
The nature of data set [3]: Quartz crystal microbalance weight loss of amine-treated iron surface in unstirred 0.5 M sodium sulfate solution. The conditions noted are these: "open" pH 5.9 sulfate solution.
The conditions of data set [4]: cited from earlier work.
Data set [5] is described as follows: QCM weight loss of DBU-treated iron deposit in Ar-purged pH 2.6 sulfate solution. The settings on record: no dissolved oxygen, pH 2.6 sodium sulfate solution. The procedure:
This conclusion was arrived at by examining the effect of DBU on the corrosion of iron in Ar-purged (no dissolved oxygen) pH 2.6 (acidic) sodium sulfate solution using the QCM technique, and comparing the results obtained with those recorded in “open” (oxygen containing) pH 2.6 and 5.9 solutions.
The apparatus for the experiments performed under purged conditions (as illustrated in FIG. 6) consists of a 500 ml Pyrex reaction vessel with a 4-necked cover. The reaction vessel and the cover are retained intact together during the experiment with the aid of a horse-shoe clamp. The QCM is inserted through the central neck, after plating the iron deposit onto the crystal. A pH electrode is inserted through one of the necks, and an inlet for Ar gas through the other. The fourth neck is stoppered when not used. The pH 2.6 sulfate solution is purged with Ar gas for 1 hour before exposure of the iron deposit (protected/unprotected) to the environment. See D. D. Perrin, B. Dempsey, E. P. Serjeant, pKa prediction of organic acids and bases, Chapman and Hall, 1981. A. A. Katritzky, Physical methods in Heterocyclic Chemistry Vol. 1, Academic Press, 1963. […]
The DBU-treated iron deposit was immersed in the Ar-purged pH 2.6 solution, and the weightloss and corresponding pH measurements recorded are plotted in FIGS. 7A and 7B. […]

Data set [6] in a line: EQCM amine adsorption on iron in passivating borate buffer (pH 8.4). The conditions noted are these: 15 mM amine. The source says:
(§1) All the test solutions were buffered so that the effect of pH variation can be eliminated as much as possible. Thus, amine inhibition effectiveness is directly related to the strength of adsorption of the amine and its molecular structure, independent of pH effects. Here, borate buffer (pH 8.4) was used as passivating environment, whereas phosphate buffer (pH 5.7) was used as corrosive environment.
(§2) Plating of iron deposit (1 u thick) onto the polished gold crystal of the QCM electrode was accomplished from a 200 ml aqueous solution with the following composition:
(§3) For adsorption studies, the deposit was immersed in a passivating buffered solution (borate, pH 8.4, prepared as cited above) for 40 rain. for equilibration, after which 15 mM amine was added to the solution. The variation in frequency upon addition of the amine is quantitatively proportional to the amine adsorbed on the surface of the metal (Sauerbrey equation).
(§4) Deaerated test solutions (no dissolved O2) are prepared by purging the test solutions with argon for 2 hours before the tests and also during the tests.

Data set [7] is described as follows: EQCM amine inhibition of iron corrosion in corrosive phosphate buffer (pH 5.7). The conditions noted are these: 15 mM amine.
Description: as §1, §2
(§5) For the corrosion inhibition studies, the deposit was immersed in a corrosive buffer solution (phosphate, pH 5.7) for 40 min. for equilibration, and then 15 mM amine was added to the solution.
as §4

Data set [8] is described as follows: Weight loss of AISI 1018 steel coupons exposed to amine containing steam at 250° F. The settings on record: 250° F. steam, compared to plain steam.
Data set [9] is described as follows: FTIR phase identification of iron oxides on steel samples exposed to amine containing steam. The settings on record: for hematite in samples exposed for four hours (FTIR): four hours exposure; for exposure time at which hematite formation was observed (FTIR): steam with 3 ppm DBU or 5 ppm morpholine.
Description: The main purpose of this analysis was to observe the relative delay in magnetite transformation to hematite.
Amorphous crystals will produce a variation in peak width, and a slight shift on IR values (Cornell R., and Schwertmann U., 1996). […] Oxyhydroxides absorption hands are as follows: α-FeOOH is known to have a deep well defined pair of sharp peaks at 890 and 795 cm^−1, γ-FeOOH presents an enunciated and deep peak at 1018 cm^−1. β-FeOOH was not expected to be present in the experiment conditions.
FIGS. 42 and 43 show the FTIR spectra of iron oxides formed on steel samples exposed to steam containing 3 ppm of DBU.
FIGS. 46 and 47 show the FTIR spectra of iron oxides formed on steel samples exposed to steam containing 3 ppm of DMA.
Data set [10] is described as follows: EQCM aniline adsorption on nickel in borate buffer (pH 8.4). The settings on record: borate buffer pH 8.4, aerated. The procedure: (§6) Plating of black nickel deposit (1 u thick) onto the polished gold crystal of the QCM electrode was accomplished from a 200 ml aqueous solution with the following composition:
as §3

A short description of data set [11]: EQCM aniline inhibition of nickel corrosion in phosphate buffer (pH 5.7). The settings on record: phosphate buffer pH 5.7, aerated. The method, then: as §6, §5
The mark [12] stands for this setting: borate buffer pH 8.4, deaerated.
Where [13] appears, read: phosphate buffer pH 5.7, aerated.
Where [14] appears, read: phosphate buffer pH 5.7, deaerated.

Where “and” joins values, the source holds several entries; their conditions need not be identical. Identical values can stand only once. Entries after “also recorded” stand apart in the source; their conditions may differ. Like-named read-outs stand apart in the source and are kept apart here.

As to `COCCCN` [3-methoxypropylamine], in data set [1], the percent wt. loss was 0% and the “time when wt. loss commenced” value is given as “no wt. loss”. Moreover, in data set [2] ("open" pH 2.6 solution), the “effectiveness as corrosion inhibitor in acidic solution” value (from here on “effectiveness as corrosion inhibitor”) is “not effective inhibitors”. The “% wt. loss in pH 2.6 solution” value in data set [2] ("open" pH 2.6 solution, over 60 minutes, probe failed after 60 minutes) is 11.19% and 11.19 (probe failed %. Besides, the “% wt. loss in pH 5.9 solution” value in data set [3] is reported as 0%.
In the case of `NCCCCCO` [5-amino-1-pentanol], in [1], the percent wt. loss was 4.106% and the “time when wt. loss commenced” value was 90 min. In addition, the “% wt. loss in pH 5.9 solution” value in data set [3] is 4.106%. The pKa in [4] (Table II, 23° C.) was 10.46 (23° C.).
On to `C1CCC2=NCCCN2CC1` [DBU, 1,8-diazabicyclo[5.4.0]undec-7-ene], for which, in data set [1], the percent wt. loss is 0% and the “time when wt. loss commenced” value is reported as “no wt. loss”. In addition, the “effectiveness as corrosion inhibitor” value in data set [2] ("open" pH 2.6 solution) is “good corrosion inhibitors”. Moreover, the “% wt. loss in pH 2.6 solution” value in [2] ("open" pH 2.6 sulfate solution) stood at 7.2%. Moreover, the “weightloss in Ar-purged pH 2.6 solution” value in data set [5] is given as “extensive weightless”. Moreover, the “adsorption on iron surface” value in data set [6] (borate buffer pH 8.4, aerated) is “forms a monolayer initially and then multilayers; also recorded: Adsorption”. For the same molecule, the “adsorption on iron surface” value in data set [6] (setting [12]) is “still can adsorb on the iron surface; also recorded: adsorption”. The “inhibition of iron corrosion” value in data set [7] (setting [13]) is recorded as “stops corrosion; also recorded: inhibition”. The “inhibition of iron corrosion” value in data set [7] (setting [14]) was “none of them can stop the iron corrosion; also recorded: no effect”. Further, the “weight loss / corrosion rate of steel coupons in steam” value (shortened to “weight loss / corrosion rate”) in data set [8] is “lowest corrosion rate”. Moreover, in data set [9], the “hematite in samples exposed for four hours (FTIR)” value (from here on “hematite in samples exposed”) is given as “no hematite was detected” and the “exposure time at which hematite formation was observed (FTIR)” value was found to be 12 h. Further, the “% wt. loss in pH 5.9 solution” value in data set [3] is on record as 0%.
Consider `CCCCNCCCC` [N,N-dibutylamine], for which the percent wt. loss in data set [1] is given as 9.3%. The “time when wt. loss commenced” value in data set [1] was 161 minutes, expt. Besides, the “adsorption on iron surface” value in data set [6] (borate buffer pH 8.4, aerated, listed as DBA) is recorded as “adsorbs on iron surface; also recorded: adsorption”; in [6] (borate buffer pH 8.4, deaerated, listed as DBA), “still can adsorb on the iron surface; also recorded: adsorption”. The “inhibition of iron corrosion” value in data set [7] (phosphate buffer pH 5.7, aerated, listed as DBA) is listed as “oxide growth is noted after its adsorption; also recorded: inhibition”; in [7] (phosphate buffer pH 5.7, deaerated, listed as DBA) it was “none of them can stop the iron corrosion; also recorded: no effect”. Also, the “% wt. loss in pH 5.9 solution” value in data set [3] came out at 9.3%. Moreover, the “pKa at 25° C.” value in [4] (Table I and text) was 11.25; in data set [4] (Table II), 11.25.
On to `Nc1ccccc1` [aniline], for which the “adsorption on iron surface” value was “does not have any adsorption” in data set [6] (borate buffer pH 8.4, aerated); “no” in [6] (borate buffer pH 8.4, aerated, listed as Aniline); “no” in data set [6] (setting [12]). In data set [7] (setting [13]), the “inhibition of iron corrosion” value is on record as “no effect on inhibition”. In [10], the “adsorption on nickel surface” value is “adsorption”. For the same molecule, the “inhibition of nickel corrosion” value in data set [11] is “inhibition”.
Molecule `CC(C)NC(C)C` [diisopropylamine] gave a percent wt. loss in data set [1] (listed as diisoproplyamine) of 0%. Moreover, the “time when wt. loss commenced” value in data set [1] is reported as “no wt. loss”. In addition, the “effectiveness as corrosion inhibitor” value in [2] ("open" pH 2.6 solution) is “not effective inhibitors”. Moreover, the “% wt. loss in pH 2.6 solution” value in data set [2] ("open" pH 2.6 sulfate solution) is recorded as 99.23%. Further, the “% wt. loss in pH 5.9 solution” value in data set [3] came out at 0%.
As for `CNC` [dimethylamine], in [1], the percent wt. loss stood at 0.793% and the “time when wt. loss commenced” value worked out at 30 min. In data set [2] ("open" pH 2.6 solution), the “effectiveness as corrosion inhibitor” value is on record as “not effective inhibitors”. In [2] ("open" pH 2.6 sulfate solution), the “% wt. loss in pH 2.6 solution” value stood at 98.4%. Further, the “weight loss / corrosion rate” value in [8] is “oxidation rates less favorable”. For the same molecule, the “hematite in samples exposed” value in data set [9] is listed as “no hematite was detected”. The “% wt. loss in pH 5.9 solution” value in data set [3] was found to be 0.793%.
For `C1COCCN1` [morpholine], in data set [1], the percent wt. loss is on record as 8.87%. The “time when wt. loss commenced” value in data set [1] was 110 min. For the same molecule, the “adsorption on iron surface” value in data set [6] (borate buffer pH 8.4, aerated) is recorded as “only weak adsorption; also recorded: little”; in [6] (setting [12]), “still can adsorb on the iron surface; also recorded: little”. Moreover, the “inhibition of iron corrosion” value in data set [7] (setting [13]) was “slow and weak”; in [7] (setting [14]) it was “none of them can stop the iron corrosion”. Moreover, in data set [8], the “weight loss / corrosion rate” value is “oxidation rates less favorable”. In addition, the “hematite in samples exposed” value in data set [9] is reported as “some hematite presence”. Besides, the “exposure time at which hematite formation was observed (FTIR)” value in data set [9] is reported as “started after two hours of exposure”. The “% wt. loss in pH 5.9 solution” value in data set [3] is 8.87%.
With `C1CCNCC1` [piperidine], in data set [1], the percent wt. loss is recorded as 0.57% and the “time when wt. loss commenced” value was 350 min. Further, in [2] ("open" pH 2.6 solution), the “effectiveness as corrosion inhibitor” value was “good corrosion inhibitors”. For the same molecule, the “% wt. loss in pH 2.6 solution” value in [2] ("open" pH 2.6 sulfate solution) is on record as 10.9%. Also, the “% wt. loss in pH 5.9 solution” value in data set [3] was determined as 0.57%.
